Drawing on patent US20140349989A1, “COMPOUNDS AND THERAPEUTIC USES THEREOF” (Alzheimer's Institute of America, priority 2011, published 2014), this text covers IC50 for 32 compounds.

One data set in a line: Cytotoxicity Assay (HCT116, CellTiter-Glo). Conditions: human, HCT116 cell cytotoxicity IC50. The data set is classed as cell-based. On the procedure: HCT116 cells were seeded in 96 well plates (Greiner Bio-One, Monroe, N.C.) and allowed to settle overnight. Test compound dissolved in dimethyl sulfoxide (DMSO) was added and drug incubation proceeded for 72 hours. When applicable, a 1000× solution of nicotinic acid (NA; Sigma-Aldrich, St. Louis, Mo.) dissolved in water was generated, and 1×NA (10 μM final concentration) was added at the same time as the test compound. After 72 hour, 50 μL of CellTiter-Glo Luminescent Cell Viability Assay reagent (Promega Corporation, Madison, Wis.) was added to cells in 200 μL of cellular media. After a proscribed incubation period, luminescence was measured using a TopCount NXT plate reader (PerkinElmer, Waltham, Mass.).
A general note: Cellular ATP, detected with luciferase, serves as a proxy for viable cell number.
The IC50 is the midpoint of a concentration-inhibition curve. With `O=C(NCc1cccnc1)Nc1ccc(-n2nc(C#CCN3CCOCC3)c3ccccc32)cc1` [Compound 42, 1-(4-{3-[3-(Morpholin-4-yl)prop-1-yn-1-yl]-1H-indazol-1-yl}phenyl)-3-(pyridin-3-ylmethyl)urea], the IC50 at 72 h was less than 100 nM.

For `O=C(NCc1cccnc1)Nc1ccc(-c2cn(S(=O)(=O)c3cccnc3)c3ccccc23)cc1` [Compound 43, 1-(Pyridin-3-ylmethyl)-3-{4-[1-(pyridin-3-ylsulfonyl)-1H-indol-3-yl]phenyl} urea], the concentration for half-maximal inhibition (IC50) at 72 h was less than 100 nM.

`CCOC(=O)c1c(C)n(-c2ccc(NC(=O)NCc3cccnc3)cc2)c2ccccc12` [Compound 79, Ethyl 2-methyl-1-(4-{[(pyridin-3-ylmethyl)carbamoyl]amino}phenyl)-1H-indole-3-carboxylate]: the IC50 at 72 h is not below 100 nM.

The compound `O=C(NCc1cccnc1)Nc1ccc(-n2nc(C(=O)N3CCC(N4CCCC4)CC3)cc2C2CC2)cc1` [Compound 74, 1-[4-(5-Cyclopropyl-3-{[4-(pyrrolidin-1-yl)piperidin-1-yl]carbonyl}-1H-pyrazol-1-yl)phenyl]-3-(pyridin-3-ylmethyl)urea] came in with an IC50 at 72 h not below 100 nM.

Compound `Nc1nn(-c2ccc(NC(=O)NCc3cccnc3)cc2)c2ccccc12` [Compound 44, 1-[4-(3-aminoindazol-1-yl)phenyl]-3-(3-pyridylmethyl)urea] yielded an IC50 at 72 h not below 100 nM.

`Cc1c(C(=O)N2CCC(n3ccnc3)CC2)c2ccccc2n1-c1ccc(NC(=O)NCc2cccnc2)cc1` [Compound 48, 1-[4-(3-{[4-(1H-Imidazol-1-yl)piperidin-1-yl]carbonyl}-2-methyl-1H-indol-1-yl)phenyl]-3-(pyridin-3-ylmethyl)urea] gave an IC50 at 72 h not below 100 nM.

Turning to `O=C(NCc1cccnc1)Nc1ccc(-n2cc(C3CCN(CC(F)(F)F)CC3)c3ccccc32)cc1` [Compound 82, 1-(Pyridin-3-ylmethyl)-3-(4-{3-[1-(2,2,2-trifluoroethyl)piperidin-4-yl]-1H-indol-1-yl}phenyl)urea], the IC50 at 72 h was less than 100 nM.

Staying with this data set, now noted: human, HCT116 cells, 72 hours drug incubation, CellTiter-Glo luminescence; read-out: HCT116 cell cytotoxicity IC50.
Consider `O=C(NCc1cccnc1)Nc1ccc(N2CC3(CCN(C(=O)OCc4ccccc4)CC3)c3ccccc32)cc1` [Compound 66, Benzyl 1-(4-{[(pyridin-3-ylmethyl)carbamoyl]ami-no}phenyl)-1,2-dihydro-1′H-spiro[indole-3,4′-piperidine]-1′-carboxyylate], for which the concentration for half-maximal inhibition (IC50) at 72 h was less than 100 nM.

As to `CCN1CCN(C(=O)c2cn(-c3ccc(NC(=O)NCc4cccnc4)cc3Cl)c3ccccc23)CC1` [Compound 95, 1-(3-Chloro-4-{3-[(4-ethylpiperazin-1-yl)carbonyl]-1H-indol-1-yl}phenyl)-3-(pyridin-3-ylmethyl)urea], the IC50 at 72 h was less than 100 nM.

Consider `COc1cccc(-c2cn(-c3ccc(NC(=O)NCc4cccnc4)cc3)nc2C(=O)N2CCC(N3CCCCC3)CC2)c1` [Compound 85, 1-{4-[3-(1,4′-Bipiperidin-1′-ylcarbonyl)-4-(3-methoxyphenyl)-1H-pyrazol-1-yl]phenyl}-3-(pyridin-3-ylmethyl)urea], for which the IC50 at 72 h is less than 100 nM.

With `CN(C)C1CN(C(=O)c2nn(-c3ccc(/C=C/C(=O)NCc4cccnc4)cc3)c3ccccc23)C1` [Compound 165, (2E)-3-[4-(3-{[3-(Dimethylamino)azetidin-1-yl]carbonyl}-1H-indazol-1-yl)phenyl]-N-(pyridin-3-ylmethyl)prop-2-enamide], the IC50 at 72 h is less than 100 nM.

As to `Cc1c(C(=O)N2CCC(N3CCC(F)(F)CC3)CC2)c2ccccc2n1-c1ccc(NC(=O)NCc2cccnc2)cc1` [Compound 77, 1-(4-{3-[(4,4-Difluoro-1,4′-bipiperidin-1′-yl)carbonyl]-2-methyl-1H-indol-1-yl}phenyl)-3-(pyridin-3-ylmethyl)urea], the IC50 at 72 h was less than 100 nM.

Take `O=C(NCc1cccnc1)Nc1ccc(-n2cc(C(=O)N3CCN(C4CCCCC4)CC3)c3ccccc32)c(Cl)c1` [Compound 92, 1-(3-Chloro-4-{3-[(4-cyclohexyl-piperazin-1-yl)carbonyl]-1H-indol-1-yl}phenyl)-3-(pyridin-3-ylmethyl)urea]: the IC50 at 72 h was less than 100 nM.

Consider `CCN(CC)CCc1cn(-c2ccc(/C=C/C(=O)NCc3cccnc3)cc2)c2ccccc12` [Compound 162, (2E)-3-(4-{3-[2-(Diethylamio)ethyl]-1H-indol-1-yl}phenyl)-N-(pyridin-3-ylmethyl)prop-2-enamide], for which the IC50 at 72 h is less than 100 nM.

In the case of `CCOC(=O)c1cn(CCCCCNC(=O)NCc2cccnc2)c2ccccc12` [Compound 65, Ethyl 1-(5-{[(pyridin-3-ylmethyl)carbamoyl]amino}pentyl)-1H-indole-3-carboxylate], the IC50 at 72 h is less than 100 nM.

Regarding `O=C(NCc1cccnc1)N[C@H]1CC[C@@H](n2cc(C(=O)N3CCN(C4CCCCC4)CC3)c3ccccc32)CC1` [Compound 34, 1-(cis-4-{3-[(4-Cyclohexyl-piperazin-1-yl)carbonyl]-1H-indol-1-yl}cyclohexyl)-3-(pyridin-3-ylmethyl)urea], the IC50 at 72 h is not below 100 nM.

Consider `COc1cccc(-c2cn(-c3ccc(NC(=O)NCc4cccnc4)cc3)nc2C(=O)NCCCN2CCCCC2)c1` [Compound 54, 4-(3-Methoxyphenyl)-N-[3-(piperidin-1-yl)propyl]-1-(4-{[(pyridin-3-ylmethyl)carbamoyl]ami-no}phenyl)-1H-pyrazole-3-carboxamide], for which the IC50 at 72 h was less than 100 nM.

Regarding `Cc1c(C(=O)N2CCN(C3CCCCC3)CC2)c2ccccc2n1-c1ccc(NC(=O)NCc2cccnc2)cc1` [Compound 104, 1-(4-{3-[(4-Cyclohexyl-piperazin-1-yl)carbonyl]-2-methyl-1H-indol-1-yl}phenyl)-3-(pyridin-3-ylmethyl)urea], the IC50 at 72 h was less than 100 nM.

As to `CC(=O)N1CCC(n2cc(C(=O)CCCCNC(=O)NCc3cccnc3)c3ccccc32)CC1` [Compound 58, 1-{5-[1-(1-Acetylpiperidin-4-yl)-1H-indol-3-yl]-5-oxo-pentyl}-3-(pyridin-3-ylmethyl)urea], the half-maximal inhibitory concentration (IC50) at 72 h is not below 100 nM.

With `Cc1c(C(=O)N2CCC(O)CC2)c2ccccc2n1-c1ccc(NC(=O)NCc2cccnc2)cc1` [Compound 108, 1-(4-{3-[(4-Hydroxypiperidin-1-yl)carbonyl]-2-methyl-1H-indol-1-yl}phenyl)-3-(pyridin-3-yl-methyl)urea], the IC50 at 72 h was less than 100 nM.

As for `COC(=O)c1cn(Cc2ccccc2)c2cc(NC(=O)NCc3cccnc3)ccc12` [Compound 83, Methyl 1-benzyl-6-{[(pyridin-3-ylmethyl)carbamoyl]ami-no}-1H-indole-3-carboxylate], the IC50 at 72 h is not below 100 nM.

Consider `O=C(NCc1cccnc1)Nc1ccc2c(c1)c(C(=O)NCCCN1CCOCC1)cn2Cc1ccccc1` [Compound 51, 1-Benzyl-N-[3-(morpholin-4-yl)propyl]-5-{[(pyridin-3-ylmethyl)carbamoyl]ami-no}-1H-indole-3-carboxamide], for which the IC50 at 72 h is not below 100 nM.

As for `O=C(NCc1cccnc1)Nc1ccc(-n2c(Cl)c(C(=O)N3CCN(C4CCCCC4)CC3)c3ccccc32)cc1` [Compound 70, 1-(4-{2-Chloro-3-[(4-cyclohexyl-piperazin-1-yl)carbonyl]-1H-indol-1-yl}phenyl)-3-(pyridin-3-ylmethyl)urea], the 50% inhibitory concentration (IC50) at 72 h is less than 100 nM.

For the compound `O=C(NCc1cccnc1)Nc1ccc(-c2nn(C3CNC3)c3ccccc23)cc1` [Compound 91, 1-{4-[1-(Azetidin-3-yl)-1H-indazol-3-yl]phenyl}-3-(pyridin-3-ylmethyl) urea], the IC50 at 72 h is less than 100 nM.

For `O=C(Cc1ccc(-n2nc(C(=O)N3CCC(N4CCCCC4)CC3)c3ccccc32)cc1)NCc1cccnc1` [Compound 183, 2-{4-[3-(1,4′-Bipiperidin-1′-ylcarbonyl)-1H-indazol-1-yl]phenyl}-N-(pyridin-3-ylmethyl)acetamide], the IC50 at 72 h was less than 100 nM.

`C[C@H](O)C(=O)N1CCC2(CC1)CN(c1ccc(NC(=O)NCc3cccnc3)cc1)c1ccccc12` [Compound 71, 1-(4-{1′-[(2S)-2-Hydroxypropanoyl]spiro[indole-3,4′-piperidin]-1(2H)-yl}phenyl)-3-(pyridin-3-ylmethyl) urea]: the IC50 at 72 h was less than 100 nM.

Take `O=C(/C=C/c1ccc(-n2nc(C(=O)N3CCN(C4CCCCC4)CC3)c3ccccc32)cc1)NCc1cccnc1` [Compound 173, (2E)-3-(4-{3-[(4-Cyclohexylpiperazin-1-yl)carbonyl]-1H-indazol-1-yl}phenyl)-N-(pyridin-3-ylmethyl)prop-2-enamide]: the IC50 at 72 h is less than 100 nM.

Regarding `O=C(NCc1cccnc1)Nc1ccc(-n2cc(CCN3CCOCC3)c3ccccc32)cc1` [Compound 100, 1-(4-{3-[2-(Morpholin-4-yl)ethyl]-1H-indol-1-yl}phenyl)-3-(pyridin-3-ylmethyl)urea], the IC50 at 72 h was less than 100 nM.

Regarding `O=C(NCc1cccnc1)Nc1ccc(-n2cc(-c3ccccc3OCCCN3CCOCC3)cn2)cc1` [Compound 30, 1-[4-(4-{2-[3-(Morpholin-4-yl)propoxy]phenyl}-1H-pyrazol-1-yl)phenyl]-3-(pyridin-3-ylmethyl)urea], the IC50 at 72 h is less than 100 nM.

Regarding `O=C(NCCCCCn1cc(C(=O)N2CCC(N3CCCCC3)CC2)c2ccccc21)NCc1cccnc1` [Compound 31, 1-{5-[3-(1,4′-Bipiperidin-1′-yl-carbonyl)-1H-indol-1-yl]pentyl}-3-(pyridin-3-ylmethyl)urea], the IC50 at 72 h was less than 100 nM.

`O=C(NCc1cccnc1)Nc1ccc(-n2nc(N3CCN(C4CCCCC4)CC3)c3ccccc32)cc1` [Compound 86, 1-{4-[3-(4-Cyclo-hexylpiperazin-1-yl)-1H-indazol-1-yl]phenyl}-3-(pyridin-3-ylmethyl)urea]: the IC50 at 72 h is less than 100 nM.

`CC(C)(CCCCNC(=O)NCc1cccnc1)n1cc(C(=O)N2CCN(C3CCCCC3)CC2)c2ccccc21` [Compound 67, 1-(5-{3-[(4-Cyclohexyl-piperazin-1-yl)carbonyl]-1H-indol-1-yl}-5-methylhexyl)-3-(pyridin-3-ylmethyl)urea]: the IC50 at 72 h is less than 100 nM.
